Values of other authors in US11857556B2, “Topical compositions of dutasteride” (SHILPA MEDICARE LIMITED, priority 2021, dated 2024).

In the case of `C[C@]12C=CC(=O)N[C@@H]1CC[C@@H]1[C@@H]2CC[C@]2(C)[C@@H](C(=O)Nc3cc(C(F)(F)F)ccc3C(F)(F)F)CC[C@@H]12` [Dutasteride, (5α,17β)-N-{2,5-bis(trifluoromethyl)phenyl}-3-oxo-4-azaandrost-1-ene-17-carboxamide], the “Solubility in ethanol, methanol and polyethylene glycol 400” value (ethanol, methanol and polyethylene glycol 400) is given as “soluble” and the Solubility in water (water) is given as “insoluble”.
